Laboratory results from US11447465B2, “Pharmaceutical compounds for treatment of medical disorders” (Achillion Pharmaceuticals, Inc., priority 2017, dated 2022).

Target: Human Factor D (Homo sapiens (Human), UniProt P00746)
Assay: Human Factor D Assay
Assay type: biochemical
Details: Table 7; read-out: IC5 (Stars)
Procedure, shortened: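 Serum-purified human factor D (80 nM final) preincubated with compound 5 min at room temperature in 50 mM Tris, 1 M NaCl, pH 7.5. Z-L-Lys-SBzl and DTNB added at 100 μM each; A405 followed every 30 s for 30 min. IC50 by nonlinear regression of rates.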

Sequence of Human Factor D (P00746 26-253): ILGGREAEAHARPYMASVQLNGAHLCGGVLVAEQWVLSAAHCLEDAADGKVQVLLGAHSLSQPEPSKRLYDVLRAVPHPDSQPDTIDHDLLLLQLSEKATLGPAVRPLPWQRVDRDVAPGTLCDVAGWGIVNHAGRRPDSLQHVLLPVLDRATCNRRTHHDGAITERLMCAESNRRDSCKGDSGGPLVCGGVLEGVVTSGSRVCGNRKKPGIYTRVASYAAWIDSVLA

| Compound | IC50 |
| --- | --- |
| CC(=O)c1nn(CC(=O)N2[C@H](C(=O)Nc3nc(Br)ccc3C)C[C@@]3(C)C[C@@H]23)c2cc3sc(C)nc3cc12 [Compound T-84, (1R,3S,5R)-2-(2-(3-acetyl-6-methyl-1H-thiazolo[4,5-f]indazol-1-yl)acetyl)-N-(6-bromo-3-methylpyridin-2-yl)-5-methyl-2-azabicyclo[3.1.0]hexane-3-carboxamide] | < 1 µM |
| CC(=O)c1nn(CC(=O)N2[C@H](C(=O)Nc3nc(Br)ccc3C)C[C@@]3(CNC(=O)COCCOCCNC(=O)COCCOCCNC(=O)CC[C@H](NC(=O)CCCCCCCCCCCCCCCCC(=O)O)C(=O)O)C[C@@H]23)c2ccccc12 [Compound T-85, (S)-1-((1R,3S,5R)-2-(2-(3-acetyl-1H-indazol-1-yl)acetyl)-3-((6-bromo-3-methylpyridin-2-yl)carbamoyl)-2-azabicyclo[3.1.0]hexan-5-yl)-24-carboxy-3,12,21,26-tetraoxo-5,8,14,17-tetraoxa-2,11,20,25-tetraazatritetracontan-43-oic acid] | < 1 µM |
| Cc1ccc(Br)nc1NC(=O)[C@@H]1C[C@@]2(C)C[C@H]2N1C(=O)Cn1nc(N2CCCC2=O)c2ccncc21 [Compound T-86, (1R,3S,5R)-N-(6-bromo-3-methylpyridin-2-yl)-5-methyl-2-(2-(3-(2-oxopyrrolidin-1-yl)-1H-pyrazolo[3,4-c]pyridin-1-yl)acetyl)-2-azabicyclo[3.1.0]hexane-3-carboxamide] | > 10 µM |
| Cc1ccc(Br)nc1NC(=O)[C@@H]1C[C@@]2(C)C[C@H]2N1C(=O)Cn1nc(N2CCC2=O)c2ccncc21 [Compound T-87, (1R,3S,5R)-N-(6-bromo-3-methylpyridin-2-yl)-5-methyl-2-(2-(3-(2-oxoazetidin-1-yl)-1H-pyrazolo[3,4-c]pyridin-1-yl)acetyl)-2-azabicyclo[3.1.0]hexane-3-carboxamide] | < 1 µM |
| Cc1ccc(Br)nc1NC(=O)[C@@H]1C[C@@]2(C)C[C@H]2N1C(=O)Cn1nc(NCCC(=O)O)c2ccncc21 [Compound T-89, 3-((1-(2-((1R,3S,5R)-3-((6-bromo-3-methylpyridin-2-yl)carbamoyl)-5-methyl-2-azabicyclo[3.1.0]hexan-2-yl)-2-oxoethyl)-1H-pyrazolo[3,4-c]pyridin-3-yl)amino)propanoic acid] | > 10 µM |
| Cc1ccc(Br)nc1NC(=O)C1CC2(C)CC2N1C(=O)Cn1nc(NCCC(=O)O)c2ccncc21 (stereo not drawn) [Compound T-90, 3-((1-(2-(3-((6-bromo-3-methylpyridin-2-yl)carbamoyl)-5-methyl-2-azabicyclo[3.1.0]hexan-2-yl)-2-oxoethyl)-1H-pyrazolo[3,4-c]pyridin-3-yl)amino)propanoic acid] | > 10 µM |
| Cc1ccc(Br)nc1NC(=O)[C@@H]1C[C@@]2(C)C[C@H]2N1C(=O)Cc1cccc(-c2nnn[nH]2)c1 [Compound T-91, (1R,3S,5R)-2-(2-(3-(1H-tetrazol-5-yl)phenyl)acetyl)-N-(6-bromo-3-methylpyridin-2-yl)-5-methyl-2-azabicyclo[3.1.0]hexane-3-carboxamide] | > 10 µM |
| CC(=O)c1nn(CC(=O)N2[C@H](C(=O)Nc3nc(Br)ccc3C)C[C@@]3(C)C[C@@H]23)c2ccc(Nc3cccn(-c4ccccn4)c3=O)cc12 [Compound T-92, (1R,3S,5R)-2-(2-(3-acetyl-5-((2-oxo-2H-[1,2′-bipyridin]-3-yl)amino)-1H-indazol-1-yl)acetyl)-N-(6-bromo-3-methylpyridin-2-yl)-5-methyl-2-azabicyclo[3.1.0]hexane-3-carboxamide] | < 1 µM |
| CC(=O)c1nn(CC(=O)N2[C@H](C(=O)Nc3nc(Br)ccc3C)C[C@@]3(C)C[C@@H]23)c2cc3nc(C)oc3cc12 [Compound T-93, (1R,3S,5R)-2-(2-(3-acetyl-6-methyl-1H-oxazolo[5,4-f]indazol-1-yl)acetyl)-N-(6-bromo-3-methylpyridin-2-yl)-5-methyl-2-azabicyclo[3.1.0]hexane-3-carboxamide] | < 1 µM |
| Cc1ccc(Br)nc1NC(=O)[C@@H]1C[C@@]2(C)C[C@H]2N1C(=O)Cc1ccc2[nH]nc(C#N)c2c1 [Compound T-94, (1R,3S,5R)-N-(6-bromo-3-methylpyridin-2-yl)-2-(2-(3-cyano-1H-indazol-5-yl)acetyl)-5-methyl-2-azabicyclo[3.1.0]hexane-3-carboxamide] | > 10 µM |
| COc1ncc(-c2cccc(CC(=O)N3[C@H](C(=O)Nc4nc(Br)ccc4C)C[C@@]4(C)C[C@@H]34)c2)cn1 [Compound T-95, (1R,3S,5R)-N-(6-bromo-3-methylpyridin-2-yl)-2-(2-(3-(2-methoxypyrimidin-5-yl)phenyl)acetyl)-5-methyl-2-azabicyclo[3.1.0]hexane-3-carboxamide] | > 10 µM |
| Cc1ccc(Br)nc1NC(=O)[C@@H]1C[C@@]2(C)C[C@H]2N1C(=O)Cc1cccc(-c2cnc(O)nc2)c1 [Compound T-96, (1R,3S,5R)-N-(6-bromo-3-methylpyridin-2-yl)-2-(2-(3-(2-hydroxypyrimidin-5-yl)phenyl)acetyl)-5-methyl-2-azabicyclo[3.1.0]hexane-3-carboxamide] | > 10 µM |
| COc1cc(CC(=O)N2[C@H](C(=O)Nc3nc(Br)ccc3C)C[C@@]3(C)C[C@@H]23)cc(-c2cnc(OC)nc2)c1 [Compound T-97, (1R,3S,5R)-N-(6-bromo-3-methylpyridin-2-yl)-2-(2-(3-methoxy-5-(2-methoxypyrimidin-5-yl)phenyl)acetyl)-5-methyl-2-azabicyclo[3.1.0]hexane-3-carboxamide] | 1 to 10 µM |
| Cc1ccc(Br)nc1NC(=O)[C@@H]1C[C@@]2(C)C[C@H]2N1C(=O)Cc1ccc2[nH]nc(C(N)=O)c2c1 [Compound T-98, 5-(2-((1R,3S,5R)-3-((6-bromo-3-methylpyridin-2-yl)carbamoyl)-5-methyl-2-azabicyclo[3.1.0]hexan-2-yl)-2-oxoethyl)-1H-indazole-3-carboxamide] | > 10 µM |
| Cc1ccc(Br)nc1NC(=O)[C@@H]1C[C@@]2(C)C[C@H]2N1C(=O)Cc1ccc2[nH]nc(Cl)c2c1 [Compound T-99, (1R,3S,5R)-N-(6-bromo-3-methylpyridin-2-yl)-2-(2-(3-chloro-1H-indazol-5-yl)acetyl)-5-methyl-2-azabicyclo[3.1.0]hexane-3-carboxamide] | 1 to 10 µM |
| Cc1cc2c(s1)c(C(N)=O)nn2CC(=O)N1[C@H](C(=O)Nc2nc(Br)ccc2C)C[C@@]2(CNC(=O)COCCOCCNC(=O)COCCOCCNC(=O)CC[C@H](NC(=O)CCCCCCCCCCCCCCCCC(=O)O)C(=O)O)C[C@@H]12 [Compound T-100, (S)-1-((1R,3S,5R)-3-((6-bromo-3-methylpyridin-2-yl)carbamoyl)-2-(2-(3-carbamoyl-5-methyl-1H-thieno[3,2-c]pyrazol-1-yl)acetyl)-2-azabicyclo[3.1.0]hexan-5-yl)-24-carboxy-3,12,21,26-tetraoxo-5,8,14,17-tetraoxa-2,11,20,25-tetraazatritetracontan-43-oic acid] | < 1 µM |
| COc1cc(CC(=O)N2[C@H](C(=O)Nc3nc(Br)ccc3C)C[C@@]3(C)C[C@@H]23)cc(-c2cnc(O)nc2)c1 [Compound T-101, (1R,3S,5R)-N-(6-bromo-3-methylpyridin-2-yl)-2-(2-(3-(2-hydroxypyrimidin-5-yl)-5-methoxyphenyl)acetyl)-5-methyl-2-azabicyclo[3.1.0]hexane-3-carboxamide] | < 1 µM |
| Cc1ccc(Br)nc1NC(=O)[C@@H]1C[C@@]2(C)C[C@H]2N1C(=O)Cc1ccc2[nH]nc(C(=O)O)c2c1 [Compound T-102, 5-(2-((1R,3S,5R)-3-((6-bromo-3-methylpyridin-2-yl)carbamoyl)-5-methyl-2-azabicyclo[3.1.0]hexan-2-yl)-2-oxoethyl)-1H-indazole-3-carboxylic acid] | 1 to 10 µM |
| CC(=O)c1nn(CC(=O)N2[C@H](C(=O)Nc3nc(Br)ccc3C)C[C@@]3(C)C[C@@H]23)c2cc3nc(C)sc3cc12 [Compound T-103, (1R,3S,5R)-2-(2-(3-acetyl-6-methyl-1H-thiazolo[5,4-f]indazol-1-yl)acetyl)-N-(6-bromo-3-methylpyridin-2-yl)-5-methyl-2-azabicyclo[3.1.0]hexane-3-carboxamide] | < 1 µM |
| Cc1ncc(-c2cc(CC(=O)N3C[C@H](F)C[C@H]3C(=O)Nc3cccc(-c4ccccc4Cl)c3F)cc(-c3cnc(C)nc3)c2)cn1 [Compound T-104, (2S,4R)-1-(2-(3,5-bis(2-methylpyrimidin-5-yl)phenyl)acetyl)-N-(2′-chloro-2-fluoro-[1,1′-biphenyl]-3-yl)-4-fluoropyrrolidine-2-carboxamide] | > 10 µM |
| CC(=O)c1cc(CC(=O)N2C[C@H](F)C[C@H]2C(=O)Nc2cccc(Br)n2)cc(-c2cnc(C)nc2)c1 [Compound T-105, (2S,4R)-1-(2-(3-acetyl-5-(2-methylpyrimidin-5-yl)phenyl)acetyl)-N-(6-bromopyridin-2-yl)-4-fluoropyrrolidine-2-carboxamide] | < 1 µM |
| CC(=O)c1cc(CC(=O)N2[C@H](C(=O)Nc3nc(Br)ccc3C)C[C@@]3(C)C[C@@H]23)cc(-c2cnc(C)nc2)c1 [Compound T-106, (1R,3S,5R)-2-(2-(3-acetyl-5-(2-methylpyrimidin-5-yl)phenyl)acetyl)-N-(6-bromo-3-methylpyridin-2-yl)-5-methyl-2-azabicyclo[3.1.0]hexane-3-carboxamide] | < 1 µM |
| CC(=O)c1cc(CC(=O)N2C[C@H](F)C[C@H]2C(=O)Nc2cccc(-c3ccccc3Cl)c2F)cc(-c2cnc(C)nc2)c1 [Compound T-107, (2S,4R)-1-(2-(3-acetyl-5-(2-methylpyrimidin-5-yl)phenyl)acetyl)-N-(2′-chloro-2-fluoro-[1,1′-biphenyl]-3-yl)-4-fluoropyrrolidine-2-carboxamide] | < 1 µM |
| COc1ncc(-c2cc(CC(=O)N3C[C@H](F)C[C@H]3C(=O)Nc3cccc(Br)n3)cc(-c3cnc(OC)nc3)c2)cn1 [Compound T-108, (2S,4R)-1-(2-(3,5-bis(2-methoxypyrimidin-5-yl)phenyl)acetyl)-N-(6-bromopyridin-2-yl)-4-fluoropyrrolidine-2-carboxamide] | > 10 µM |
